From the NIST ThermoML archive (doi:10.1016/j.jct.2018.02.022)

Assay: xn = mol fraction of the nth substance listed
Settings: 293.15 K, 92.3 kPa, Liquid; for viscosity: Concentric cylinders viscometry; for speed of sound: Frequency=3 MHz, Single path-length method; for mass density: Vibrating tube method

OCCOCCOCCO [triethylene glycol] + O
Settings	mass density [kg/m3]	speed of sound [m/s]	viscosity [mPa·s]
x1 = 0.0101	1009.83	1526.7	–
x1 = 0.0196	1019.71	1563.3	–
x1 = 0.025	1024.91	–	1.881
x1 = 0.029	1028.88	1595.7	–
x1 = 0.0381	1036.74	1622.5	–
x1 = 0.0489	1044.89	–	2.921
x1 = 0.0496	1045.76	1651.6	–
x1 = 0.0601	1053.18	1673.8	–
x1 = 0.0689	1058.69	1689	–
x1 = 0.0754	1062.23	–	4.368
x1 = 0.0801	1065	1704.9	–
x1 = 0.0905	1070.23	1716.5	–
x1 = 0.0993	1074.35	–	5.989
x1 = 0.0996	1074.38	1724.7	–
x1 = 0.1479	1090.64	1744.5	–
x1 = 0.15	1091.94	–	10.19
x1 = 0.1993	1101.82	–	14.46
x1 = 0.2004	1101.27	1742	–
x1 = 0.2462	1107.12	1732.1	–
x1 = 0.2526	1107.94	–	19.41
x1 = 0.2998	1111.26	–	23.57
x1 = 0.3004	1111.57	1718.2	–
x1 = 0.3474	1114.22	1706.1	–
x1 = 0.3539	1113.94	–	27.83
x1 = 0.3948	1116.15	1694.8	–
x1 = 0.4009	1115.83	–	31.2
x1 = 0.4467	1117.71	1683.9	–
x1 = 0.4492	1117.53	–	34.1
x1 = 0.4992	1119.04	–	36.67
x1 = 0.5021	1118.97	1673.6	–
x1 = 0.548	1119.77	1666.3	–
x1 = 0.5484	1120.2	–	38.84
x1 = 0.5923	1120.43	1660	–
x1 = 0.5996	1121.03	–	40.64
x1 = 0.6442	1121.04	1653.7	–
x1 = 0.6506	1121.46	–	42.15
x1 = 0.701	1121.62	–	43.67
x1 = 0.7095	1121.66	1647	–
x1 = 0.7531	1122.03	1642.9	–
x1 = 0.7567	1121.7	–	44.87
x1 = 0.7859	1122.28	1640.2	–
x1 = 0.8035	1121.91	–	45.73
x1 = 0.8387	1122.62	1636.5	–
x1 = 0.8406	1122.25	–	46.36
x1 = 0.8981	1123.02	–	46.96
x1 = 0.9031	1123.01	1632.1	–
x1 = 0.9181	1123.08	1631.3	–
x1 = 0.9344	1123.16	1630.5	–
x1 = 0.9489	1123.57	–	47.64
x1 = 0.9569	1123.28	1629.2	–
x1 = 0.9782	1123.37	1628.1	–
x1 = 1	1123.48	1626.8	48.06
